# Data: ChEMBL document CHEMBL4725268, “Anticonvulsant and analgesic in neuropathic pain activity in a group of new aminoalkanol derivatives” (Bioorg Med Chem Lett, 2020)
# Activity calls are given as the source filed them.
# Columns and labels:
# Salmonella enterica = test: Antimicrobial activity against Salmonella enterica ATCC 51957 assessed as reduction in bacterial growth at 0.195 to 100 ug/ml by serial dilution method; type: organism-based; conditions: in vivo, dose 0.195-100 µg/ml
# Mus musculus [1] = test: Antiallodynic activity in mouse model of OXA-induced peripheral neuropathy assessed as mean paw withdrawal threshold at 18 mg/kg, ip administered after 7 days of OXA stimulation and measured after 1 hr by Von-frey method (reference value: 3.192 +/- 0.181 g); type: functional
# Enterococcus faecalis = test: Antimicrobial activity against Enterococcus faecalis ATCC 29212 assessed as reduction in bacterial growth at 0.195 to 100 ug/ml by serial dilution method; type: organism-based; conditions: in vivo, dose 0.195-100 µg/ml
# [2] = Genotoxicity in Salmonella typhimurium TA100 assessed as mutagenic index at 1000 ug by AMES test; type: toxicity, Salmonella enterica subsp. enterica serovar Typhimurium; conditions: in vivo; dose 1000 µg
# [3] = Protection index, ratio of TD50 for toxicity in ip dosed mouse to ED50 for anticonvulsant activity in ip dosed mouse; type: organism-based; conditions: in vivo, read-out: PI
# Mus musculus [4] = test: Antiallodynic activity in mouse model of OXA-induced peripheral neuropathy assessed as mean latency time to nocifensive response at 18 mg/kg, ip administered after 3 hrs of OXA stimulation and measured after 1 hr by cold plate method (reference value: 59.76 +/- 0.16 sec); type: functional
# [5] = Genotoxicity in Salmonella typhimurium TA98 assessed as number of revertant at 200 ug by AMES test (reference value: 8 to 8.3); type: toxicity, Salmonella enterica subsp. enterica serovar Typhimurium; conditions: in vivo; dose 200 µg
# [6] = Genotoxicity in Salmonella typhimurium TA100 assessed as number of revertant at 500 ug by AMES test (reference value: 64.3 to 130.7); type: toxicity, Salmonella enterica subsp. enterica serovar Typhimurium; conditions: in vivo; dose 500 µg
# [7] = Toxicity in mouse assessed as lethality at 10 mg/kg, ip; type: organism-based; conditions: in vivo
# Escherichia coli [8] = test: Antimicrobial activity against Escherichia coli ATCC 35218 assessed as reduction in bacterial growth at 0.195 to 100 ug/ml by serial dilution method; type: organism-based; conditions: in vivo, dose 0.195-100 µg/ml
# [9] = Genotoxicity in Salmonella typhimurium TA100 assessed as mutagenic index at 75 ug by AMES test; type: toxicity, Salmonella enterica subsp. enterica serovar Typhimurium; conditions: in vivo; dose 75 µg
# [10] = Genotoxicity in Salmonella typhimurium TA100 assessed as mutagenic index at 500 ug by AMES test; type: toxicity, Salmonella enterica subsp. enterica serovar Typhimurium; conditions: in vivo; dose 500 µg
# [11] = Genotoxicity in Salmonella typhimurium TA98 assessed as mutagenic index at 500 ug by AMES test; type: toxicity, Salmonella enterica subsp. enterica serovar Typhimurium; conditions: in vivo; dose 500 µg
# Mus musculus [12] = test: Antiallodynic activity in mouse model of OXA-induced peripheral neuropathy assessed as mean latency time to nocifensive response at 18 mg/kg, ip administered after 7 days of OXA stimulation and measured after 1 hr by cold plate method (reference value: 57.64 +/- 1.267 sec); type: functional
# [13] = Toxicity in ip dosed mouse assessed as motor impairment by rotarod test; type: organism-based; conditions: in vivo
# [14] = Genotoxicity in Salmonella typhimurium TA98 assessed as number of revertant at 500 ug by AMES test (reference value: 8 to 8.3); type: toxicity, Salmonella enterica subsp. enterica serovar Typhimurium; conditions: in vivo; dose 500 µg
# [15] = Genotoxicity in Salmonella typhimurium TA98 assessed as number of revertant at 750 ug by AMES test (reference value: 8 to 8.3); type: toxicity, Salmonella enterica subsp. enterica serovar Typhimurium; conditions: in vivo; dose 750 µg
# Escherichia coli [16] = test: Antimicrobial activity against Escherichia coli ATCC 25922 assessed as reduction in bacterial growth at 0.195 to 100 ug/ml by serial dilution method; type: organism-based; conditions: in vivo, dose 0.195-100 µg/ml
# [17] = Genotoxicity in Salmonella typhimurium TA98 assessed as number of revertant at 75 ug by AMES test (reference value: 8 to 8.3); type: toxicity, Salmonella enterica subsp. enterica serovar Typhimurium; conditions: in vivo; dose 75 µg
# [18] = Genotoxicity in Salmonella typhimurium TA100 assessed as number of revertant at 200 ug by AMES test (reference value: 64.3 to 130.7); type: toxicity, Salmonella enterica subsp. enterica serovar Typhimurium; conditions: in vivo; dose 200 µg
# Hoylesella loescheii = test: Antimicrobial activity against Prevotella loescheii ATCC 15930 assessed as reduction in bacterial growth at 0.195 to 100 ug/ml by disk diffusion method; type: organism-based, DSM 19665 = JCM 12249 = ATCC 15930; conditions: in vivo, dose 0.195-100 µg/ml
# [19] = Genotoxicity in Salmonella typhimurium TA98 assessed as mutagenic index at 75 ug by AMES test; type: toxicity, Salmonella enterica subsp. enterica serovar Typhimurium; conditions: in vivo; dose 75 µg
# Clostridioides difficile = test: Antimicrobial activity against clinical strain Clostridium difficile assessed as reduction in bacterial growth at 0.195 to 100 ug/ml by disk diffusion method; type: organism-based; conditions: in vivo, dose 0.195-100 µg/ml
# [20] = Genotoxicity in Salmonella typhimurium TA98 assessed as number of revertant at 10 ug by AMES test (reference value: 8 to 8.3); type: toxicity, Salmonella enterica subsp. enterica serovar Typhimurium; conditions: in vivo; dose 10 µg
# Staphylococcus aureus [21] = test: Antimicrobial activity against Staphylococcus aureus ATCC 25923 assessed as reduction in bacterial growth at 0.195 to 100 ug/ml by serial dilution method; type: organism-based; conditions: in vivo, dose 0.195-100 µg/ml
# [22] = Genotoxicity in Salmonella typhimurium TA100 assessed as number of revertant at 75 ug by AMES test (reference value: 64.3 to 130.7); type: toxicity, Salmonella enterica subsp. enterica serovar Typhimurium; conditions: in vivo; dose 75 µg
# Staphylococcus aureus [23] = test: Antimicrobial activity against clinical strain Staphylococcus aureus assessed as reduction in bacterial growth at 0.195 to 100 ug/ml by serial dilution method; type: organism-based; conditions: in vivo, dose 0.195-100 µg/ml
# Bacteroides fragilis = test: Antimicrobial activity against Bacteroides fragilis ATCC 25285 assessed as reduction in bacterial growth at 0.195 to 100 ug/ml by disk diffusion method; type: organism-based; conditions: in vivo, dose 0.195-100 µg/ml
# [24] = Genotoxicity in Salmonella typhimurium TA100 assessed as mutagenic index at 200 ug by AMES test; type: toxicity, Salmonella enterica subsp. enterica serovar Typhimurium; conditions: in vivo; dose 200 µg
# [25] = Genotoxicity in Salmonella typhimurium TA98 assessed as mutagenic index at 200 ug by AMES test; type: toxicity, Salmonella enterica subsp. enterica serovar Typhimurium; conditions: in vivo; dose 200 µg
# [26] = Antimicrobial activity against clinical strain Bifidobacterium assessed as reduction in bacterial growth at 0.195 to 100 ug/ml by disk diffusion method; conditions: dose 0.195-100 µg/ml
# [27] = Genotoxicity in Salmonella typhimurium TA100 assessed as number of revertant at 1000 ug by AMES test (reference value: 64.3 to 130.7); type: toxicity, Salmonella enterica subsp. enterica serovar Typhimurium; conditions: in vivo; dose 1000 µg
# [28] = Genotoxicity in Salmonella typhimurium TA98 assessed as mutagenic index at 750 ug by AMES test; type: toxicity, Salmonella enterica subsp. enterica serovar Typhimurium; conditions: in vivo; dose 750 µg
# Mus musculus [29] = test: Antiallodynic activity in mouse model of OXA-induced peripheral neuropathy assessed as mean paw withdrawal threshold at 18 mg/kg, ip administered after 3 hrs of OXA stimulation and measured after 1 hr by Von-frey method (reference value: 3.144 +/- 0.169 g); type: functional
# [30] = target: T1, 5-hydroxytryptamine receptor 1A (Homo sapiens) (UniProt P08908); test: Binding affinity to 5-HT1A (unknown origin) at 10^-5 M; conditions: dose 1.0 10^-5M
# T1 sequence (whole entry): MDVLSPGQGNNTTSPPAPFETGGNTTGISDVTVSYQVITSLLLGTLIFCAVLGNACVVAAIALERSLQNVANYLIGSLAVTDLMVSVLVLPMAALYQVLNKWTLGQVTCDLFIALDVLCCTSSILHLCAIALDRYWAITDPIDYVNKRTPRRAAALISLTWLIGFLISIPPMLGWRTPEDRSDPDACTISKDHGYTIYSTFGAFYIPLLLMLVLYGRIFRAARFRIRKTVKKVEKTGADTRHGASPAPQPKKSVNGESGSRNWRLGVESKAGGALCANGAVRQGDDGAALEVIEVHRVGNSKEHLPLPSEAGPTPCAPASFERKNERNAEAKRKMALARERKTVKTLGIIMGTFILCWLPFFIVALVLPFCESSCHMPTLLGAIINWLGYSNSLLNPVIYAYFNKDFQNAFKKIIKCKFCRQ
# [31] = Antioxidant activity assessed as DPPH radical scavenging activity at 125 to 1000 uM by microplate method; type: functional; conditions: dose microM 125-1000
# [32] = Genotoxicity in Salmonella typhimurium TA100 assessed as mutagenic index at 10 ug by AMES test; type: toxicity, Salmonella enterica subsp. enterica serovar Typhimurium; conditions: in vivo; dose 10 µg
# [33] = Genotoxicity in Salmonella typhimurium TA98 assessed as mutagenic index at 10 ug by AMES test; type: toxicity, Salmonella enterica subsp. enterica serovar Typhimurium; conditions: in vivo; dose 10 µg
# Mus musculus [34] = test: Anticonvulsant activity in ip dosed mouse assessed as protection against current-induced seizure by maximal electroshock seizure test; type: functional
# [35] = Genotoxicity in Salmonella typhimurium TA100 assessed as number of revertant at 10 ug by AMES test (reference value: 64.3 to 130.7); type: toxicity, Salmonella enterica subsp. enterica serovar Typhimurium; conditions: in vivo; dose 10 µg
compound,measurement,setting,value
Cc1cc(C)c(C)c(OCCCN2CCC(O)CC2)c1,Activity,Salmonella enterica,Non-Toxic
same,Activity,Mus musculus [1],2.027 g
same,Activity,Enterococcus faecalis,Non-Toxic
same,Activity_index,[2],18.5
same,selectivity ratio,[3],3.58
same,Time,Mus musculus [4],15.167 s
same,Activity,[5],11
same,Activity,[6],944
same,Activity,[7],Non-Toxic
same,Activity,Escherichia coli [8],Non-Toxic
same,Activity_index,[9],0.8
same,Activity_index,[10],14.7
same,Activity_index,[11],0.8
same,Time,Mus musculus [12],8.833 s
same,TD50,[13],63.4 mg/kg
same,Activity,[14],6.7
same,Activity,[15],364.3
same,Activity,Escherichia coli [16],Non-Toxic
same,Activity,[17],15.3
same,Activity,[18],42
same,Activity,Hoylesella loescheii,Non-Toxic
same,Activity_index,[19],1.8
same,Activity,Clostridioides difficile,Non-Toxic
same,Activity,[20],12
same,Activity,Staphylococcus aureus [21],Non-Toxic
same,Activity,[22],52.3
same,Activity,Staphylococcus aureus [23],Non-Toxic
same,Activity,Bacteroides fragilis,Non-Toxic
same,Activity_index,[24],0.7
same,Activity_index,[25],1.3
same,Activity,[26],Non-Toxic
same,Activity,[27],1190
same,Activity_index,[28],43.7
same,Activity,Mus musculus [29],1.921 g
same,Activity,[30],inactive
same,Activity,[31],inactive
same,Activity_index,[32],1
same,Activity_index,[33],1.4
same,ED50,Mus musculus [34],17.7 mg/kg
same,Activity,[35],66
